According to ChEMBL document CHEMBL4837181 (Eur J Med Chem, 2020):

Legend:
[1] = Cmax in human up to 1200 mg administered bid; assay type: ADME; set-up: dose <=1200
[2] = Cmax in human at 2400 mg administered bid; assay type: ADME; set-up: dose 2400 mg; conditions: in vivo
[3] = Dose normalized AUC (0 to infinity) in rat at 50 mg/kg, po measured upto 72 hrs by LC-MS/MS analysis; assay type: ADME, organism-based; conditions: in vivo
[4] = Cmax in female cynomolgus monkey at 225 mg/kg, po measured on day 1; assay type: ADME, organism-based, Macaca fascicularis; set-up: route oral, dose 225 mg/kg; conditions: in vivo
[5] = Half life in female cynomolgus monkey at 15 mg/kg, iv measured on day 1; assay type: ADME, organism-based, Macaca fascicularis; conditions: in vivo
[6] = Volume of distribution in female cynomolgus monkey at 15 mg/kg, iv measured on day 1; assay type: ADME, organism-based, Macaca fascicularis; conditions: in vivo
[7] = AUC (0 to 24 hrs) in female cynomolgus monkey at 225 mg/kg, po measured on day 1; assay type: ADME, organism-based, Macaca fascicularis; set-up: time < 24 hr, route oral, dose 225 mg/kg; conditions: in vivo
[8] = Cmax in po BID dosed cynomolgus monkey administered for 28 days; assay type: ADME, organism-based, Macaca fascicularis; set-up: route oral, time 28 day; conditions: in vivo
[9] = Change in AUC(infinity) in rat at 185 umol/kg, po measured upto 72 hrs by LC-MS/MS analysis; assay type: ADME, organism-based; conditions: in vivo, at 185 µmol/kg
[10] = Chemical stability of compound in PBS buffer assessed as compound remaining at pH 7.4 at 5 uM measured after 24 hrs by LC-MS/MS analysis; assay type: physicochemical; conditions: read-out: Stabilty
[11] = Chemical stability of compound in simulated gastric fluid assessed as compound remaining at 5 uM measured after 24 hrs by LC-MS/MS analysis; assay type: ADME, physicochemical; conditions: read-out: Stabilty
[12] = Chemical stability of compound in simulated intestinal fluid assessed as compound remaining at 5 uM measured after 24 hrs by LC-MS/MS analysis; assay type: ADME, physicochemical; conditions: read-out: Stabilty
[13] = Lipophilicity, logP of the compound; assay type: physicochemical; conditions: octanol/water
[14] = Lipophilicity, logD of compound; assay type: physicochemical; conditions: octanol/water
[15] = Drug metabolism in human hepatocytes assessed as unmetabolized compound at 10 uM incubated for 120 mins by UPLC-QTOF-PDA analysis; assay type: ADME, cell-based, Hepatocyte; conditions: read-out: Drug metabolism
Cytochrome P450 3A4 = Cytochrome P450 3A4 (Homo sapiens, UniProt P08684); assay: Direct inhibition of CYP3A4 in human hepatocytes; assay type: ADME, cell-based, Hepatocyte
Sequence of Cytochrome P450 3A4 (P08684 whole entry): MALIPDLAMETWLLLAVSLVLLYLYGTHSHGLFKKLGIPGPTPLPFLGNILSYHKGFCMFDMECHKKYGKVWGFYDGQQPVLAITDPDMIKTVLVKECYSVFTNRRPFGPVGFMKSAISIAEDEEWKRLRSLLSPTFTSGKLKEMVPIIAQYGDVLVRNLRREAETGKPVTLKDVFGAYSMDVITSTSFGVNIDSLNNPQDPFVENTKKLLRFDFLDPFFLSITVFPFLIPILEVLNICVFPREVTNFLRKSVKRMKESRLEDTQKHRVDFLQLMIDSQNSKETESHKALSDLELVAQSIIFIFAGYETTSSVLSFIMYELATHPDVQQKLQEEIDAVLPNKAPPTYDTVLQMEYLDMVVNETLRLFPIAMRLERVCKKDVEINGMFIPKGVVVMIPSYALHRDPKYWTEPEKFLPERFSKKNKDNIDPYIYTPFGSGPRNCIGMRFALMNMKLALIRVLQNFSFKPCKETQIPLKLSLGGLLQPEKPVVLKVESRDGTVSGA

Cytochrome P450 2C9 = Cytochrome P450 2C9 (Homo sapiens, UniProt P11712); assay: Inhibition of CYP2C9 in human hepatocytes; assay type: ADME, cell-based, Hepatocyte
Sequence of Cytochrome P450 2C9 (P11712 whole entry): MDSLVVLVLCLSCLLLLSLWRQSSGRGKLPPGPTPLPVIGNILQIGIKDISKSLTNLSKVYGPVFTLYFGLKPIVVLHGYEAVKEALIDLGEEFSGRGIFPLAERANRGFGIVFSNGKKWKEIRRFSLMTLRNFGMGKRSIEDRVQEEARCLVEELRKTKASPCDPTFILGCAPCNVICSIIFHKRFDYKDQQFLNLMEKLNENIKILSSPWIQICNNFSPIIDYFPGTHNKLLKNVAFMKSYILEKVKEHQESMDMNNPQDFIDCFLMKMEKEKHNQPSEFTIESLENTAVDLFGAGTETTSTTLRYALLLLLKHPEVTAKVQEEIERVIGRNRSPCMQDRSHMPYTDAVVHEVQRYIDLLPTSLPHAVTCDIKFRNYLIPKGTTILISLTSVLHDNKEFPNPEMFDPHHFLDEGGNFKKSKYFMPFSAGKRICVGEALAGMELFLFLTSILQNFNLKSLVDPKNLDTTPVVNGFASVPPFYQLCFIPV

[16] = target: T1, Solute carrier organic anion transporter family member 1B1 (Homo sapiens, UniProt Q9Y6L6); assay: Inhibition of OATP1B1 (unknown origin) expressed in HEK293 cells; assay type: cell-based
T1 sequence (Q9Y6L6 whole entry): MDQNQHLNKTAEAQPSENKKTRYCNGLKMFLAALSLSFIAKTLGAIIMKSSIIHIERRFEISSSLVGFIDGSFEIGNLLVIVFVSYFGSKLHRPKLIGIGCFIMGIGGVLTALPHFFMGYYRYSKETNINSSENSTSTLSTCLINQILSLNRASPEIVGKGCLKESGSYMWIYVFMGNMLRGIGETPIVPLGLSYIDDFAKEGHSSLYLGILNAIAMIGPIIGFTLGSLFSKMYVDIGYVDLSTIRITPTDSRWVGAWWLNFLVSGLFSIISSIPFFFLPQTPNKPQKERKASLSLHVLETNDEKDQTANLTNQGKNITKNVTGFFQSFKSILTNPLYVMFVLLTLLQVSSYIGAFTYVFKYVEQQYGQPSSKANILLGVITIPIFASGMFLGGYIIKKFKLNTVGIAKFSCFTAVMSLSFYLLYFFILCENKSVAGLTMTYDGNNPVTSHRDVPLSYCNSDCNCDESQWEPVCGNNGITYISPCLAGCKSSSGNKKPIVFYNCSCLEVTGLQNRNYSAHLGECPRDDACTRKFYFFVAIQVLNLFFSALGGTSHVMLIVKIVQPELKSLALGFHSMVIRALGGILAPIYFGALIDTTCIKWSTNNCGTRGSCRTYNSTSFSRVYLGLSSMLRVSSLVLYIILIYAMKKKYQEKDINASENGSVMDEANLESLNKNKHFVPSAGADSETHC

OAT3 = OAT3 (Homo sapiens, UniProt Q8TCC7); assay: Inhibition of OAT3 (unknown origin) expressed in HEK293 cells; assay type: cell-based
Sequence of OAT3 (Q8TCC7 whole entry, looked up): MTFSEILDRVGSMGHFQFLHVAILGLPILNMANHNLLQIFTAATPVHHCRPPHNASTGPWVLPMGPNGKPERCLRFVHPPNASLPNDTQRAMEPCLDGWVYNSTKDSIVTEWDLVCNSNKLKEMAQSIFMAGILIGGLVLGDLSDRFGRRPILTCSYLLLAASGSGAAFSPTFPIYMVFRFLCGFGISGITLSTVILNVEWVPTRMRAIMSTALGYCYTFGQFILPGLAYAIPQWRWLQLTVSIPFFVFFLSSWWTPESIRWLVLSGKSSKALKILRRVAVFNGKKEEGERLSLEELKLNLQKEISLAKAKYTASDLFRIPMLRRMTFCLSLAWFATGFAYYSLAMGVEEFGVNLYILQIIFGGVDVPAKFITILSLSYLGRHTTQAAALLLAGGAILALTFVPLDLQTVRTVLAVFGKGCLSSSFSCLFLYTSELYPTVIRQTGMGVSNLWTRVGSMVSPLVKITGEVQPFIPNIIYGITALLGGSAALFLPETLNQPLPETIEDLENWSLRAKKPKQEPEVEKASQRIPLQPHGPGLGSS

[17] = target: T2, Broad substrate specificity ATP-binding cassette transporter ABCG2 (Homo sapiens, UniProt Q9UNQ0); assay: Inhibition of BCRP in human Caco-2 cells; assay type: cell-based
T2 sequence (Q9UNQ0 whole entry): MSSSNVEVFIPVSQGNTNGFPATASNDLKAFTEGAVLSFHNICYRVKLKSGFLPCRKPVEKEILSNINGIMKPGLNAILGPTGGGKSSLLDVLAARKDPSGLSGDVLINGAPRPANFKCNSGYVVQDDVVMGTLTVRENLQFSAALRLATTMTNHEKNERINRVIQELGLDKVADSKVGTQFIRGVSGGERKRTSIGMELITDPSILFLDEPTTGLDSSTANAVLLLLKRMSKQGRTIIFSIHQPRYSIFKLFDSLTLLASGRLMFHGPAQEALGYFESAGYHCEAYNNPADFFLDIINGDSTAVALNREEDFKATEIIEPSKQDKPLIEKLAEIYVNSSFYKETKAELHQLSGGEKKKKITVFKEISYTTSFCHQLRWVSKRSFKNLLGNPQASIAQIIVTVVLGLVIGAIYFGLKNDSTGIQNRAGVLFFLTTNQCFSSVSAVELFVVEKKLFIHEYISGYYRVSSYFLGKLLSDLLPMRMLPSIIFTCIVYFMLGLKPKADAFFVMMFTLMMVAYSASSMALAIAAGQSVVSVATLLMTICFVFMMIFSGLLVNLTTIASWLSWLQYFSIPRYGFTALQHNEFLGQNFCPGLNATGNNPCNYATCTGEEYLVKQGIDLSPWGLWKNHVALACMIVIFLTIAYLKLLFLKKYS

[18] = Drug metabolism in cynomolgus monkey assessed as formation of M9 metabolite at 15 mg/kg, iv administered as single dose; assay type: ADME, organism-based, Macaca fascicularis; conditions: in vivo
[19] = Drug metabolism in cynomolgus monkey assessed as indoximod formation of by measuring indoximod Tmax at 15 mg/kg, iv administered as single dose; assay type: ADME, organism-based, Macaca fascicularis; conditions: in vivo
[20] = Drug metabolism in cynomolgus monkey assessed as ratio of indoximod to parent compound at 75 to 675 mg/kg, po administered as single dose; assay type: ADME, organism-based, Macaca fascicularis; conditions: in vivo, dose 75-675 mg/kg
[21] = Drug metabolism in rats assessed as ratio of indoximod to parent compound at 20 to 900 mg/kg, po administered as single dose; assay type: ADME, organism-based; conditions: rat, in vivo, dose 20-900 mg/kg
[22] = Drug metabolism in cynomolgus monkey assessed as ratio of indoximod to parent compound at 75 to 375 mg/kg, po BID administered […]; assay type: ADME, organism-based, Macaca fascicularis; conditions: in vivo, dose 75-375 mg/kg
[23] = Oral bioavailability in male cynomolgus monkey at 75 mg/kg; assay type: ADME, organism-based, Macaca fascicularis; conditions: in vivo
[24] = Protein binding in Beagle dog plasma; assay type: ADME, cell-free, Canis lupus familiaris; conditions: read-out: PPB
[25] = Toxicity in po dosed female rat administered twice a day; assay type: organism-based; conditions: in vivo
[26] = Toxicity in po dosed male rat administered twice a day; assay type: organism-based; conditions: in vivo
[27] = Toxicity in cynomolgus monkey assessed as NOAEL at 150 mg/kg, po BID administered for 28 days; assay type: organism-based, Macaca fascicularis; conditions: in vivo, time 28 day
[28] = Toxicity in monkey assessed as change in cardiovascular parameter; set-up: species or system Macaca mulatta; conditions: rhesus monkey, in vivo

Compound: Cn1cc(C[C@@H](N)C(=O)O)c2ccccc21 [INDOXIMOD]
- Cmax [1]: 13.7 µM
- Cmax [2]: 22 µM
- AUC/dose [3]: 1323 µM·h
- Cmax [4]: 68.5 µM
- half-life [5]: 1.5 h
- Vd [6]: 0.9 L/kg
- AUC(0-t) at 24 h [7]: 181 µM·h
- Cmax [8]: 103 µM
- Activity [9]: 0%

Compound: CCOC(=O)[C@@H](Cc1cn(C)c2ccccc12)NC(=O)[C@@H](N)CC(C)C.Cl
- remaining at 24 h, 5 µM [10]: 48%
- remaining at 24 h, 5 µM [11]: 88%
- remaining at 24 h, 5 µM [12]: 30%
- logP [13]: 2.6
- logD [14]: 2.3
- remaining at 2 h, 10 µM [15]: 0.9%
- IC50 (Cytochrome P450 3A4): 5 µM
- IC50 (Cytochrome P450 2C9): > 50 µM
- IC50 [16]: > 50 µM
- IC50 (OAT3): > 50 µM
- inhibition (INH) [17]: Not Active
- Drug metabolism [18]: Metabolite_Detected
- Tmax [19]: 1 h
- Ratio [20]: 690
- Ratio [21]: > 39000
- Ratio [22]: 690
- bioavailability [23]: 61.8%
- fraction unbound [24]: 0.5
- TD10 [25]: 150 mg/kg
- TD10 [26]: 150 mg/kg
- NOAEL at 672 h [27]: 120 mg/kg
- Activity [28]: Non-Toxic
